Experimental data as given in ChEMBL document CHEMBL4715829, “Heterodimeric Rifampicin-Tobramycin conjugates break intrinsic resistance of Pseudomonas aeruginosa to doxycycline and chloramphenicol in vitro and in a Galleria mellonella in vivo model” (Eur J Med Chem, 2019).

Assays:
[1] = test system: Staphylococcus aureus; experiment: Antibacterial activity against Staphylococcus aureus ATCC 29213 assessed as reduction in bacterial growth incubated for 18 hrs by broth microdilution assay; format: functional
[2] = test system: Staphylococcus epidermidis; experiment: Antibacterial activity against methicillin-susceptible Staphylococcus epidermidis CANWARD 81388 assessed as reduction in bacterial growth incubated for 18 hrs by broth microdilution assay; format: functional
[3] = test system: Streptococcus pneumoniae; experiment: Antibacterial activity against Streptococcus pneumoniae ATCC 49619 assessed as reduction in bacterial growth incubated for 18 hrs by broth microdilution assay; format: functional
[4] = test system: Escherichia coli; experiment: Antibacterial activity against Escherichia coli CAN-ICU 63074 (AMK 32) assessed as reduction in bacterial growth incubated for 18 hrs by broth microdilution assay; format: functional
[5] = test system: Escherichia coli; experiment: Antibacterial activity against gentamicin, tobramycin, ciprofloxacin-resistant Escherichia coli ATCC 97615 harboring aac(3')IIa gene assessed as reduction in bacterial growth incubated for 18 hrs by broth microdilution assay; format: functional
[6] = test system: Pseudomonas aeruginosa; experiment: Antibacterial activity against gentamicin, tobramycin-resistant Pseudomonas aeruginosa CANWARD 96846 assessed as reduction in bacterial growth incubated for 18 hrs by broth microdilution assay; format: functional
[7] = test system: Pseudomonas aeruginosa; experiment: Antibacterial activity against Pseudomonas aeruginosa 750 harboring efflux mutant assessed as reduction in bacterial growth incubated for 18 hrs by broth microdilution assay; format: functional
[8] = test system: Pseudomonas aeruginosa; experiment: Antibacterial activity against Pseudomonas aeruginosa PAO1 assessed as reduction in bacterial growth by measuring rifampicin MIC at <=[…] uM in presence of rifampicin incubated for 18 hrs by broth microdilution assay based checkerboard assay (reference value: […] microg/ml); format: functional; settings: dose microM <=10
[9] = test system: Pseudomonas aeruginosa; experiment: Antibacterial activity against Pseudomonas aeruginosa PAO1 assessed as reduction in bacterial growth by measuring tobramycin MIC at <=10 uM in presence of tobramycin incubated for 18 hrs by broth microdilution assay based checkerboard assay (reference value: 1 microg/ml); format: functional; settings: dose microM <=10
[10] = test system: Pseudomonas aeruginosa; experiment: Antibacterial activity against Pseudomonas aeruginosa PAO1 assessed as reduction in bacterial growth by measuring doxycycline MIC at <=[…] uM in presence of doxycycline incubated for 18 hrs by broth microdilution assay based checkerboard assay (reference value: […] microg/ml); format: functional; settings: dose microM <=10
[11] = test system: Pseudomonas aeruginosa; experiment: Antibacterial activity against Pseudomonas aeruginosa PAO1 assessed as reduction in bacterial growth by measuring linezolid MIC at <=10 uM in presence of linezolid incubated for 18 hrs by broth microdilution assay based checkerboard assay (reference value: 1024 microg/ml); format: functional; settings: dose microM <=10
[12] = test system: Pseudomonas aeruginosa; experiment: Antibacterial activity against Pseudomonas aeruginosa PAO1 assessed as reduction in bacterial growth by measuring meropenem MIC at <=10 uM in presence of meropenem incubated for 18 hrs by broth microdilution assay based checkerboard assay (reference value: 1 microg/ml); format: functional; settings: dose microM <=10
[13] = test system: Pseudomonas aeruginosa; experiment: Antibacterial activity against Pseudomonas aeruginosa PAO1 assessed as reduction in bacterial growth by measuring moxifloxacin MIC at <=10 uM in presence of moxifloxacin incubated for 18 hrs by broth microdilution assay based checkerboard assay (reference value: 1 microg/ml); format: functional; settings: dose microM <=10
[14] = test system: Pseudomonas aeruginosa; experiment: Antibacterial activity against Pseudomonas aeruginosa PAO1 assessed as reduction in bacterial growth by measuring aztreonam MIC at <=10 uM in presence of aztreonam incubated for 18 hrs by broth microdilution assay based checkerboard assay (reference value: 4 microg/ml); format: functional; settings: dose microM <=10
[15] = test system: Pseudomonas aeruginosa; experiment: Antibacterial activity against Pseudomonas aeruginosa PAO1 assessed as reduction in bacterial growth by measuring chloramphenicol MIC at <=[…] uM in presence of chloramphenicol incubated for 18 hrs by broth microdilution assay based checkerboard assay (reference value: […] microg/ml); format: functional; settings: dose microM <=10
[16] = test system: Pseudomonas aeruginosa; experiment: Antibacterial activity against Pseudomonas aeruginosa PAO1 assessed as reduction in bacterial growth by measuring erythromycin MIC at <=10 uM in presence of erythromycin incubated for 18 hrs by broth microdilution assay based checkerboard assay (reference value: 256 microg/ml); format: functional; settings: dose microM <=10
[17] = test system: Pseudomonas aeruginosa; experiment: Antibacterial activity against Pseudomonas aeruginosa PAO1 assessed as reduction in bacterial growth by measuring pleuromutilin MIC at <=10 uM in presence of pleuromutilin incubated for 18 hrs by broth microdilution assay based checkerboard assay (reference value: 512 microg/ml); format: functional; settings: dose microM <=10
[18] = test system: Pseudomonas aeruginosa; experiment: Antibacterial activity against Pseudomonas aeruginosa PAO1 assessed as reduction in bacterial growth by measuring colistin MIC at <=10 uM in presence of colistin incubated for 18 hrs by broth microdilution assay based checkerboard assay (reference value: 1 microg/ml); format: functional; settings: dose microM <=10
[19] = test system: Pseudomonas aeruginosa; experiment: Antibacterial activity against Pseudomonas aeruginosa PAO1 assessed as fractional inhibitory concentration index in presence of Minocycline incubated for 18 hrs by broth microdilution assay based checkerboard assay; format: functional
[20] = test system: Pseudomonas aeruginosa; experiment: Antibacterial activity against Pseudomonas aeruginosa PAO1 assessed as fractional inhibitory concentration index in presence of Linezolid incubated for 18 hrs by broth microdilution assay based checkerboard assay; format: functional
[21] = test system: Pseudomonas aeruginosa; experiment: Antibacterial activity against Pseudomonas aeruginosa PAO1 assessed as fractional inhibitory concentration index in presence of Meropenem incubated for 18 hrs by broth microdilution assay based checkerboard assay; format: functional
[22] = test system: Pseudomonas aeruginosa; experiment: Antibacterial activity against Pseudomonas aeruginosa PAO1 assessed as fractional inhibitory concentration index in presence of Vancomycin incubated for 18 hrs by broth microdilution assay based checkerboard assay; format: functional
[23] = test system: Pseudomonas aeruginosa; experiment: Antibacterial activity against Pseudomonas aeruginosa PAO1 assessed as fractional inhibitory concentration index in presence of Fosfomycin incubated for 18 hrs by broth microdilution assay based checkerboard assay; format: functional
[24] = test system: Pseudomonas aeruginosa; experiment: Antibacterial activity against Pseudomonas aeruginosa PAO1 assessed as fractional inhibitory concentration index in presence of Colistin incubated for 18 hrs by broth microdilution assay based checkerboard assay; format: functional
[25] = test system: Pseudomonas aeruginosa; experiment: Antibacterial activity against Pseudomonas aeruginosa 100036 assessed as fractional inhibitory concentration index in presence of doxycycline incubated for 18 hrs by broth microdilution assay; format: functional
[26] = test system: Pseudomonas aeruginosa; experiment: Antibacterial activity against Pseudomonas aeruginosa 264-101354 assessed as fractional inhibitory concentration index in presence of chloramphenicol incubated for 18 hrs by broth microdilution assay; format: functional
[27] = test system: Pseudomonas aeruginosa; experiment: Antibacterial activity against Pseudomonas aeruginosa 101243 assessed as fractional inhibitory concentration index in presence of doxycycline incubated for 18 hrs by broth microdilution assay; format: functional
[28] = test system: Pseudomonas aeruginosa; experiment: Antibacterial activity against Pseudomonas aeruginosa 262-101856 assessed as fractional inhibitory concentration index in presence of chloramphenicol incubated for 18 hrs by broth microdilution assay; format: functional
[29] = test system: Pseudomonas aeruginosa; experiment: Antibacterial activity against Pseudomonas aeruginosa 260-97103 assessed as fractional inhibitory concentration index in presence of doxycycline incubated for 18 hrs by broth microdilution assay; format: functional
[30] = test system: Pseudomonas aeruginosa; experiment: Antibacterial activity against Pseudomonas aeruginosa 91433 assessed as fractional inhibitory concentration index in presence of doxycycline incubated for 18 hrs by broth microdilution assay; format: functional
[31] = Cytotoxicity against human HEK293 cells assessed as cell viability at <10 uM incubated for 48 hrs by prestoblue assay; format: cell-based; settings: read-out: Activity
[32] = Cytotoxicity against human HEK293 cells assessed as cell viability at 50 uM incubated for 48 hrs by prestoblue assay; format: cell-based; settings: read-out: Activity
[33] = test system: Pseudomonas aeruginosa; experiment: Antibacterial activity against Pseudomonas aeruginosa 101885 assessed as reduction in bacterial growth incubated for 18 hrs by broth microdilution assay; format: functional
[34] = test system: Pseudomonas aeruginosa; experiment: Antibacterial activity against Pseudomonas aeruginosa 259-96918 assessed as reduction in bacterial growth incubated for 18 hrs by broth microdilution assay; format: functional
[35] = test system: Pseudomonas aeruginosa; experiment: Antibacterial activity against Pseudomonas aeruginosa 264-101354 assessed as reduction in bacterial growth incubated for 18 hrs by broth microdilution assay; format: functional

CO[C@H]1/C=C/O[C@@]2(C)Oc3c(C)c(O)c4c(O)c(c(/C=N/N5CCN(Cc6cn(CCCCCCCCCCCCO[C@@H]7[C@@H](O[C@H]8O[C@H](CO)[C@@H](O)[C@H](N)[C@H]8O)[C@H](N)C[C@H](N)[C@H]7O[C@H]7O[C@H](CN)[C@@H](O)C[C@H]7N)nn6)CC5)c(O)c4c3C2=O)NC(=O)/C(C)=C\C=C\[C@H](C)[C@H](O)[C@@H](C)[C@@H](O)[C@@H](C)[C@H](OC(C)=O)[C@@H]1C.O=C(O)C(F)(F)F.O=C(O)C(F)(F)F.O=C(O)C(F)(F)F.O=C(O)C(F)(F)F.O=C(O)C(F)(F)F
MIC [1]: 16 mg/L
MIC [2]: 4 mg/L
MIC [3]: 8 mg/L
MIC [4]: 32 mg/L
MIC [5]: 32 mg/L
MIC [6]: > 32 mg/L
MIC [7]: 128 mg/L
MIC [8]: 2 mg/L
MIC [9]: 1 mg/L
MIC [10]: 1 mg/L
MIC [11]: 256 mg/L
MIC [12]: 1 mg/L
MIC [13]: 1 mg/L
MIC [14]: 4 mg/L
MIC [15]: 2 mg/L
MIC [16]: 8 mg/L
MIC [17]: 256 mg/L
MIC [18]: 0.25 mg/L
fractional inhibitory concentration index (FICI) [19]: 0.28
fractional inhibitory concentration index (FICI) [20]: 0.28
fractional inhibitory concentration index (FICI) [21]: 1.03
fractional inhibitory concentration index (FICI) [22]: 0.53
fractional inhibitory concentration index (FICI) [23]: 0.28
fractional inhibitory concentration index (FICI) [24]: 0.26
fractional inhibitory concentration index (FICI) [25]: 0.07
fractional inhibitory concentration index (FICI) [26]: 0.063
fractional inhibitory concentration index (FICI) [27]: 0.094
fractional inhibitory concentration index (FICI) [28]: <0.125
fractional inhibitory concentration index (FICI) [29]: <0.133
fractional inhibitory concentration index (FICI) [30]: 0.133
viability at 48 h [31]: > 90%
viability at 48 h, 50 µM [32]: > 70%
MIC [33]: 256 mg/L
MIC [34]: > 128 mg/L
MIC [35]: 256 mg/L
